Results published in patent US9833497B2, “Human originated EGF domain proteins and use of the same” (CHENGDU SOURCEBIO LIMITED-LIABILITY COMPANY, priority 2013, dated 2017).

Legend:
Assay type in all cases: cell-based
Pseudomonas aeruginosa = experiment: MIC against Gram-negative bacteria: Pseudomonas aeruginosa; conditions: 5×10^5 CFU/mL
Summary of the method: (§1)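 Antibacterial activity of purified human EGF domain proteins: two-fold concentration series, triplicate wells, LB broth, 5×10^5 CFU/mL bacteria, 37° C shaking incubation. The lowest concentration without growth defines the MIC.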

Moraxella catarrhalis = experiment: MIC against Gram-negative bacteria: Moraxella catarrhalis; conditions: 5×10^5 CFU/mL
Summary of the method: as §1

Klebsiella pneumonia = experiment: MIC against Gram-negative bacteria: Klebsiella pneumonia; conditions: 5×10^5 CFU/mL
Summary of the method: as §1

Aeromonas hydrophila = experiment: MIC against Gram-negative bacteria: Aeromonas hydrophila; conditions: 5×10^5 CFU/mL
Summary of the method: as §1

E. coli DH5α = experiment: Antibacterial activity: MIC and growth curve against E. coli DH5α in 96-well plate; conditions: minimal inhibitory concentration against E. coli DH5α; 96-well plate, 5×10^5 CFU/mL, 37° C., judged after 8 h
Summary of the method: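 Log-phase DH5α (OD600 about 0.5, 37° C, 185 rpm in LB) was pelleted, resuspended in fresh LB and seeded at 5×10^5 CFU/mL with recombinant protein at 50, 25 and 12.5 μg/mL (two-fold series), in triplicate. Plates were shaken at 175 rpm, 37° C, and OD600 was read every 30 min. MIC was the lowest concentration with no growth.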

Proteus mirabilis = experiment: MIC against Gram-negative bacteria: Proteus mirabilis; conditions: 5×10^5 CFU/mL
Summary of the method: as §1

E. coli BL21 = experiment: MIC against Gram-negative bacteria: E. coli BL21; conditions: 5×10^5 CFU/mL
Summary of the method: as §1

Citrobacter diversus = experiment: MIC against Gram-negative bacteria: Citrobacter diversus; conditions: 5×10^5 CFU/mL
Summary of the method: as §1

Serratia marcescens = experiment: MIC against Gram-negative bacteria: Serratia marcescens; conditions: 5×10^5 CFU/mL
Summary of the method: as §1

Enterobacter cloacae = experiment: MIC against Gram-negative bacteria: Enterobacter cloacae; conditions: 5×10^5 CFU/mL
Summary of the method: as §1

Proteus vulgaris = experiment: MIC against Gram-negative bacteria: Proteus vulgaris; conditions: 5×10^5 CFU/mL
Summary of the method: as §1

[1] = E. coli BL21, 10 h cultivation at 37° C.
[2] = 10 h cultivation at 37° C., two-fold serial dilution

## PRT816 (WGPDCSHPCNCSAGHGSCDAISGLCLCEAGYVGPRCE; listed as Homo sapiens)
Pseudomonas aeruginosa; 10 h cultivation at 37° C.
  MIC (μg/mL) P. aeruginosa: 100 µg/mL
Moraxella catarrhalis; 10 h cultivation at 37° C.
  MIC (μg/mL) M. catarrhalis: 50 µg/mL
Klebsiella pneumonia; 10 h cultivation at 37° C.
  MIC (μg/mL) K. pneumonia: 50 µg/mL
Aeromonas hydrophila; 10 h cultivation at 37° C.
  MIC (μg/mL) A. hydrophila: 12.5 µg/mL
E. coli DH5α
  MIC: 25 µg/mL
Proteus mirabilis; 10 h cultivation at 37° C.
  MIC (μg/mL) P. mirabilis: 25 µg/mL
E. coli BL21; [1]
  MIC (μg/mL) E. coli BL21: 50 µg/mL
Citrobacter diversus; 10 h cultivation at 37° C.
  MIC (μg/mL) C. diversus: 25 µg/mL
Serratia marcescens; 10 h cultivation at 37° C.
  MIC (μg/mL) S. marcescens: 12.5 µg/mL
Enterobacter cloacae; 10 h cultivation at 37° C.
  MIC (μg/mL) E. cloacae: 25 µg/mL
Proteus vulgaris; 10 h cultivation at 37° C.
  MIC (μg/mL) P. vulgaris: 25 µg/mL

## PRT1166 (DTPEGVRYISSNVCGPHGKCKSQSGGKFTCDCNKGFTGTYCH; listed as Homo sapiens)
Pseudomonas aeruginosa; [2]
  MIC P. aeruginosa: 25 µg/mL
Moraxella catarrhalis; [2]
  MIC M. catarrhalis: 50 µg/mL
Klebsiella pneumonia; [2]
  MIC K. pneumonia: 50 µg/mL
Aeromonas hydrophila; [2]
  MIC A. hydrophila: 25 µg/mL
E. coli DH5α
  MIC: 50 µg/mL
Proteus mirabilis; [2]
  MIC P. mirabilis: 12.5 µg/mL
E. coli BL21; [2]
  MIC E. coli BL21: 12.5 µg/mL
Citrobacter diversus; [2]
  MIC C. diversus: 12.5 µg/mL
Serratia marcescens; [2]
  MIC S. marcescens: 12.5 µg/mL
Enterobacter cloacae; [2]
  MIC E. cloacae: 25 µg/mL
Proteus vulgaris; [2]
  MIC P. vulgaris: 50 µg/mL

## PRT1359 (SREICPVPCSEEHGTCVDGLCVCHDGFAGDDCN; listed as Homo sapiens)
Pseudomonas aeruginosa; Pseudomonas aeruginosa, 10 h cultivation at 37° C.
  MIC against P. aeruginosa: 25 µg/mL
Moraxella catarrhalis; Moraxella catarrhalis, 10 h cultivation at 37° C.
  MIC against M. catarrhalis: 12.5 µg/mL
Klebsiella pneumonia; Klebsiella pneumonia, 10 h cultivation at 37° C.
  MIC against K. pneumonia: 12.5 µg/mL
Aeromonas hydrophila; Aeromonas hydrophila, 10 h cultivation at 37° C.
  MIC against A. hydrophila: 12.5 µg/mL
E. coli DH5α
  MIC: 25 µg/mL
Proteus mirabilis; Proteus mirabilis, 10 h cultivation at 37° C.
  MIC against P. mirabilis: 25 µg/mL
E. coli BL21; [1]
  MIC against E. coli BL21: 12.5 µg/mL
Citrobacter diversus; Citrobacter diversus, 10 h cultivation at 37° C.
  MIC against C. diversus: 25 µg/mL
Serratia marcescens; Serratia marcescens, 10 h cultivation at 37° C.
  MIC against S. marcescens: 25 µg/mL
Enterobacter cloacae; Enterobacter cloacae, 10 h cultivation at 37° C.
  MIC against E. cloacae: 25 µg/mL
Proteus vulgaris; Proteus vulgaris, 10 h cultivation at 37° C.
  MIC against P. vulgaris: 12.5 µg/mL

## PRT1059 (SDSECPLSHDGYCLHDGVCMYIEALDKYACNCVVGYIGERCQ; listed as Homo sapiens)
Pseudomonas aeruginosa; [2]
  MIC P. aeruginosa: 50 µg/mL
Moraxella catarrhalis; [2]
  MIC M. catarrhalis: 12.5 µg/mL
Klebsiella pneumonia; [2]
  MIC K. pneumonia: 12.5 µg/mL
Aeromonas hydrophila; [2]
  MIC A. hydrophila: 25 µg/mL
E. coli DH5α
  MIC: 50 µg/mL
Proteus mirabilis; [2]
  MIC P. mirabilis: 12.5 µg/mL
E. coli BL21; [2]
  MIC E. coli BL21: 12.5 µg/mL
Citrobacter diversus; [2]
  MIC C. diversus: 50 µg/mL
Serratia marcescens; [2]
  MIC S. marcescens: 12.5 µg/mL
Enterobacter cloacae; [2]
  MIC E. cloacae: 25 µg/mL
Proteus vulgaris; [2]
  MIC P. vulgaris: 25 µg/mL

## PRT696 (DVDECTQSPGLCGRGACKNLPGSFRCVCPAGFRGSACE; listed as Homo sapiens)
Pseudomonas aeruginosa; 96-well plate, 37° C., 10 h
  MIC P. aeruginosa: 12.5 µg/mL
Moraxella catarrhalis; 96-well plate, 37° C., 10 h
  MIC M. catarrhalis: 25 µg/mL
Klebsiella pneumonia; 96-well plate, 37° C., 10 h
  MIC K. pneumonia: 50 µg/mL
Aeromonas hydrophila; 96-well plate, 37° C., 10 h
  MIC A. hydrophila: 12.5 µg/mL
E. coli DH5α
  MIC: 50 µg/mL
Proteus mirabilis; 96-well plate, 37° C., 10 h
  MIC P. mirabilis: 50 µg/mL
E. coli BL21; 96-well plate, 37° C., 10 h
  MIC E. coli BL21: 25 µg/mL
Citrobacter diversus; 96-well plate, 37° C., 10 h
  MIC C. diversus: 25 µg/mL
Serratia marcescens; 96-well plate, 37° C., 10 h
  MIC S. marcescens: 12.5 µg/mL
Enterobacter cloacae; 96-well plate, 37° C., 10 h
  MIC E. cloacae: 25 µg/mL
Proteus vulgaris; 96-well plate, 37° C., 10 h
  MIC P. vulgaris: 25 µg/mL

## PRT804 (HGAHCELRCPCQNGGTCHHITGECACPPGWTGAVCA; listed as Homo sapiens)
Pseudomonas aeruginosa; 10 h cultivation at 37° C.
  MIC (μg/mL) P. aeruginosa: 12.5 µg/mL
Moraxella catarrhalis; 10 h cultivation at 37° C.
  MIC (μg/mL) M. catarrhalis: 50 µg/mL
Klebsiella pneumonia; 10 h cultivation at 37° C.
  MIC (μg/mL) K. pneumonia: 50 µg/mL
Aeromonas hydrophila; 10 h cultivation at 37° C.
  MIC (μg/mL) A. hydrophila: 12.5 µg/mL
E. coli DH5α
  MIC: 12.5 µg/mL
Proteus mirabilis; 10 h cultivation at 37° C.
  MIC (μg/mL) P. mirabilis: 12.5 µg/mL
E. coli BL21; [1]
  MIC (μg/mL) E. coli BL21: 50 µg/mL
Citrobacter diversus; 10 h cultivation at 37° C.
  MIC (μg/mL) C. diversus: 12.5 µg/mL
Serratia marcescens; 10 h cultivation at 37° C.
  MIC (μg/mL) S. marcescens: 50 µg/mL
Enterobacter cloacae; 10 h cultivation at 37° C.
  MIC (μg/mL) E. cloacae: 12.5 µg/mL
Proteus vulgaris; 10 h cultivation at 37° C.
  MIC (μg/mL) P. vulgaris: 25 µg/mL

## PRT144 (DKKVCSSNPCQNGGTCLNLHDSFFCICPPQWKGPLCS; listed as Homo sapiens)
Pseudomonas aeruginosa; 10 h cultivation at 37° C.
  MIC (μg/mL) P. aeruginosa: 12.5 µg/mL
Moraxella catarrhalis; 10 h cultivation at 37° C.
  MIC (μg/mL) M. catarrhalis: 12.5 µg/mL
Klebsiella pneumonia; 10 h cultivation at 37° C.
  MIC (μg/mL) K. pneumonia: 50 µg/mL
Aeromonas hydrophila; 10 h cultivation at 37° C.
  MIC (μg/mL) A. hydrophila: 50 µg/mL
E. coli DH5α
  MIC: 25 µg/mL
Proteus mirabilis; 10 h cultivation at 37° C.
  MIC (μg/mL) P. mirabilis: 25 µg/mL
E. coli BL21; [1]
  MIC (μg/mL) E. coli BL21: 50 µg/mL
Citrobacter diversus; 10 h cultivation at 37° C.
  MIC (μg/mL) C. diversus: 25 µg/mL
Serratia marcescens; 10 h cultivation at 37° C.
  MIC (μg/mL) S. marcescens: 12.5 µg/mL
Enterobacter cloacae; 10 h cultivation at 37° C.
  MIC (μg/mL) E. cloacae: 12.5 µg/mL
Proteus vulgaris; 10 h cultivation at 37° C.
  MIC (μg/mL) P. vulgaris: 50 µg/mL
